Data: US7674823B2, “DNA-PK inhibitors” (Cancer Research Technology Limited, priority 2001, dated 2010)
Where two headings read alike, the source gives them in different places.

Molecular target: T1, Mammalian DNA-PK, isolated from Hela cell nuclear extract (Homo sapiens, UniProt P78527)
T1 construct: Mammalian DNA-PK, isolated from Hela cell nuclear extract; endogenous in cells; host or cells: HeLa cell nuclear extract (purified per Gell and Jackson 1999)
Assay: DNA-PK inhibition assay (33P-ATP, filter binding)
Type: biochemical
How it was run: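 DNA-PK from HeLa nuclear extract preincubated with compound 10 min at 30 °C, then started with 50 μM Na-ATP final, ^33P-γATP and 30mer dsDNA (10 ng/μl), run 45 min at 30 °C.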

[1] = IC50 of less than about 1 μM and/or % inhibition of more than about 50 at 1 μM, read-out: DNA-PK inhibition IC50 (particular efficacy)
[2] = concentration at which 50% of the enzyme activity is inhibited, read-out: DNA-PK Inhibition IC50

IC50 [1] [nM] | IC50 [2] [nM] | Compound
< 1000 | 500 | O=c1cc(N2CCOCC2)oc2c3c(ccc12)CCCC3 [Compound 297, 7,8,9,10-tetrahydro-benzo[h]-2-(morpholin-4-yl)-chromen-4-one]
< 1000 | 300 | CC1CN(c2cc(=O)c3ccc4ccccc4c3o2)CCO1 (stereo not drawn) [Compound 317, 2-(2-Methyl-morpholin-4-yl)-benzo[h]chromen-4-one]
< 1000 | 500 | O=C1c2ccccc2C(=O)N1CCCOc1ccc2c(=O)cc(N3CCOCC3)oc2c1 [Compound 422, N-[3-(2-(Morpholin-4-yl)-4-oxo-4H-chromen-7-yloxy)-propyl]-phthalimide]
